A melting point compilation (Tetko et al.; mined from patent text by program, amines drawn as free bases though some values may be those of a salt)
Starred links: 1 amine or outer side, 2 acyl side, 3 side chain; linkers in the order of their positions; H or OH if unused. Residues, ends and D or L forms follow the SMILES beside them. Suc = O=C(CCC(=O)[*:2])[*:1]

| SMILES | melting point [°C] |
| --- | --- |
| COc1cc(CC(=O)NCCCc2ccc(C)c(C)c2)ccc1OCCN(CCO)CCO | 54 to 58 |
| O=C1NCC(c2cccc(C(F)(F)F)c2)C1c1cn2c3c(cccc13)CCC2 (stereo not given) | 82 to 85 |
| COc1cc(N2CCN([C@H]3CC[C@@H](c4cccs4)CC3)CC2)c2ncccc2c1 | 184 to 186 |
| Cc1nn2c(c1Cl)N=NC2CCNC(=O)c1ccccc1C(=O)O (stereo not given) | 162 to 166 |
| CNC(=O)OC1Oc2ccc(OS(C)(=O)=O)cc2C1(C)C (stereo not given) | 126 to 127 |
| CC(=O)Nc1cc2cc([N+](=O)[O-])ccc2oc1=O | 277 to 279 |
| COCCOC(=O)Nc1cccc(C)c1CNc1cccn2c(C=O)c(C)nc12 | 153 to 155 |
| CC#CCOc1ccc(SC(C(=O)NO)c2cccc3ccccc23)cc1 (stereo not given) | 140 |
| Cc1c(C=O)nc(-c2ccc(C(F)(F)F)cc2)n1C | 144 |
| Cc1cc(-c2nnc3c4ccccc4c(OCc4nncn4C)nn23)no1 | 261 to 263 |
| CCNC(=O)C1CCCN1C(=O)C(C)NC(=O)CCC(=O)O (stereo not drawn) (Suc-Ala-Pro-NHEt; configuration not given here) | 139 to 141 |
| O=C(O)CN1C(=O)C(=Cc2ccc(OCc3ccc(F)cc3F)c(OCc3ccccc3)c2)SC1=S | 236 to 239 |
| CCN(CC)C(=O)c1ccc(C)c(-c2nc(N(C)CCCN(C)C)nc3c2CNC(=O)N3c2c(F)cccc2F)c1 | 106 to 108 |
| CN1C(=O)c2c(-c3ccccc3)noc2CC1c1ccccc1 (stereo not given) | 108 to 111 |
| CS(=O)(=O)N1CCC(Nc2nc(Nc3ccc(F)c(Cl)c3)nc(OCC(F)(F)F)n2)C1 (stereo not given) | 199 to 200 |
| CCN(CC)S(=O)(=O)c1ccc2c(c1)C(C(Cl)(Cl)Cl)OC(C(Cl)(Cl)Cl)O2 (stereo not given) | 125 to 126 |
| NC1=NC(c2ccc(OC(F)(F)F)cc2)(c2cccc(-c3cccnc3F)c2)C2=NCCCCCN12 (stereo not given) | 95 to 99 |
| O=C(NCCN1CCN(C(c2ccc(F)cc2)c2ccccn2)CC1)C1CSC(c2cccnc2)N1 (stereo not given) | 144 to 146 |
| COC(=O)CCc1ncc2c(c1C(=O)OC)CCO2 | 80 to 81 |
| CC(OCc1cc2nc(Cl)ccc2n1S(=O)(=O)c1ccc2ncsc2c1)C(=O)O (stereo not given) | 179 |
| Cc1cccc(Oc2c[nH]c(=O)[nH]c2=O)c1 | 291 to 295 |
| CCOC(=O)CN1C(=O)Nc2cccc(Cl)c2C1C (stereo not given) | 143 to 144 |
| Cc1c(C(=O)N[C@@H](Cc2ccc(OCc3ccccc3)cc2)C(=O)O)oc2cc(-c3ccc(Cl)cc3)ccc12 | 143 to 144 |
| COc1cccc(CNc2nccc(-c3cc(N4CCN(CCCN5CCC5)CC4)c4cc(OC)ccc4c3)n2)c1 | 122 to 130 |
| CS(=O)(=O)OCN1C=NN(c2c(Cl)cc(C(F)(F)F)cc2Cl)C1 | 96 to 97 |

| SMILES | melting point [°C] |
| --- | --- |
| CNCCCn1c(-c2ccc(OC)cc2)csc1=Nc1ccccc1 | 143 to 146 |
| Cc1cc(F)ccc1N(C)C(=O)c1cccc(S(=O)(=O)N(C)c2ccc(Br)cc2)c1 | 104 to 105 |
| COc1ccc(-c2c(Cl)c(CN3C(=O)CCC3=O)nc3sc4c(c23)CC(C)(C)C(=O)C4(F)F)cc1 | 200 to 202 |
| CC1(C)CCOc2ccc(C3(C)C=CC=CC3C=O)cc21 (stereo not given) | 85 to 86 |
| CCOC(=O)Cc1sc(Sc2cccc(C(=O)OCC)n2)nc1C | 73 to 75 |
| Cc1noc(-c2c(C)nc(Br)n2C)n1 | 89 |
| CCCCc1nc(O)c(CC(=O)OCC)c(=O)n1Cc1ccc(C(=O)OC)cc1 | 170 |
| O=C1NC2c3ccccc3CC2O1 (stereo not given) | 94 to 95 |
| CCCc1c(OCCCOc2ccc3ccc(OCC(=O)OC)cc3c2C(C)=O)ccc(C(C)=O)c1O | 104 to 107 |
| COc1cc(OC)nc(NC(=O)NS(=O)(=O)c2ccccc2CS(=O)(=O)N(C)C)n1 | 172 to 176 |
| COc1ccc(-c2ccnc(-c3ccccc3)c2)cc1F | 84 |
| CS(=O)(=O)c1ccc(-n2nc(C(F)(F)F)cc2-c2ccc(-c3cc4ccccc4o3)cc2)cc1 | 137 to 138 |
| CCOC(=O)c1cnc2nc(N3CCN(C)CC3)ncc2c1OCC | 105 to 108 |
| O=C(O)Cc1ccc2c(c1)CCCOO2 | 99 to 101 |
| CCCCc1nc(COC)c(C(=O)OC)n1Cc1ccc(-c2ccccc2C(=O)O)cc1 | 106 to 110 |
| OCc1conc1-c1ccc(F)c(Cl)c1 | 87 to 88 |
| OC1CSC(Oc2cc(-c3ccccn3)ccc2Cl)C(O)C1O (stereo not given) | 108 |
| Cc1cccc(NC(=O)NC2CN(CC(=O)N3CC4CCC(CC4)C3)c3c(C)cccc3C(c3ccccc3F)=N2)c1 (stereo not given) | 246 to 247 |
| CC(=O)NCC1CN(c2ccc(N3CCC(C(C#N)CO)CC3)c(F)c2)C(=O)O1 (stereo not given) | 136 to 138 |
| CCCCc1nc(CC(=O)O)c(-c2ccco2)o1 | 62 to 63 |
| CC(C)n1nc(-c2cc(C#N)c(=O)[nH]c2-c2ccccc2)ccc1=O | > 250 |
| Cn1nc(-c2ccccc2F)nc1-c1ccccc1C(F)(F)F | 104 to 107 |
| CCCC1(C2=CCN(C)CC2)c2ccccc2CCc2ccccc21 | 122 to 124 |
| COc1ccc2[nH]c3c(c2c1[N+](=O)[O-])CCC3O (stereo not given) | 230 |
| O=C(O)C=Cc1ccc(Oc2c(-c3ccc(O)cc3)ccc3cc(O)ccc23)cc1 | 150 to 153 |

| SMILES | melting point [°C] |
| --- | --- |
| CC(C)(C)COc1cccc(C[C@H]2NC(=O)O[C@H]2c2cccc(Cl)c2)c1 (racemic) | 141 to 142 |
| N#Cc1ccccc1-c1ccc2cc(CBr)ccc2c1 | 171 to 172 |
| C=CCc1ccc(-c2nc3c(N[C@H]4[C@@H](C(N)=O)[C@@H]5C=C[C@H]4C5)c(Cl)cnc3[nH]2)c(OC)c1 | 123 to 126 |
| Cc1nc([C@@H]2C[C@H]2c2ccc3ccccc3n2)cc(-n2nc(C)nc2C)n1 (relative stereo) | 140 to 141 |
| COc1cc(-c2ncn(C3CC3)c2-c2ccc(C(F)(F)F)cc2)cc(OC)c1OC | 125 to 130 |
| O=C(CC1CCCCCC1=O)c1ccc(Br)cc1 (stereo not given) | 124 to 127 |
| Cc1ccc(C(=O)Nc2c(NC(=O)CN3CCN(c4ncccn4)CC3)ccc3c2C(=O)c2ccccc2C3=O)cc1 | 267 to 268 |
| Cc1ccc(CCCC(=O)O)cc1C | 50 to 51 |
| CC1CCC(C(=O)Nc2ccccc2)=C2NC=C(C(=O)O)C(=O)N21 (stereo not given) | 200 to 201 |
| Cc1scc2c1N(C(=O)NCCN1CCC(CCCN3CCCCC3)CC1)c1ccccc1NC2=O | 170 to 171 |
| N#CC(c1ccc(Cl)cc1)N(Cc1ccccc1)C(=O)C(F)(F)F (stereo not given) | 131 to 132 |
| Cc1ccc(O)cc1C=O | 116 to 118 |
| CC(=O)[NH+]([O-])C[C@@H]1CN(c2cc(F)c(N3CCN(C(=O)CO)CC3)c(F)c2)C(=O)O1 (stereo not given in full) | 100 to 105 |
| O=C(NO)[C@H]1[C@H](O)CCN1C(=O)c1ccc(OC(F)(F)F)cc1 | 64 to 65 |
| CN1CCN(C(=NS(=O)(=O)c2ccc(F)cc2)N2CC(c3ccccc3)C(c3cccnc3)=N2)CC1 (stereo not given) | 169 to 170 |
| C#CCOc1ccc(OC)cc1-c1nc2cnccc2[nH]1 | 210 |
| CCCC(=O)OCC(=O)C1(OC(=O)CCC)CCC2C3CC(C)C4=CC(=O)CCC4(C)C3C(O)CC21C (stereo not given) | 103 |
| COc1ccc(C)cc1C(CCO)c1ccccc1 (stereo not given) | 64 |
| CCOC(=O)CCNC(=S)Nc1ccc2cn[nH]c2c1 | 145 |
| COc1ccc(CS(=O)(=O)Cc2ccc(OC)cc2)cc1 | 108 to 123 |
| CC(C)C(=O)N(O)Cc1ccc2c(c1)Cc1ccccc1-2 | 163 to 166 |
| CN(C)c1nc2cc(NC(=O)c3c(C(=O)N4CCCC4)cnn3C)ccn2n1 | 199 to 201 |
| CC(=O)NC1=NN(c2ccc(Cl)cc2)CC1C (stereo not given) | 172 to 173 |
| C=CCNc1nc(N2CCc3ccccc3CC2)c(C#N)c(=O)n1CC=C | 181 to 182 |
| CCOC(=O)C(=CNc1ccc(F)c(Cl)c1)C(=O)c1ccccc1Cl | 96 to 102 |

| SMILES | melting point [°C] |
| --- | --- |
| CCOC(=O)C1NCCN(C(=O)OC(C)(C)C)C1=O (stereo not given) | 86 to 87 |
| O=C1CCc2ccc(OCCCCBr)cc2N1 | 106 to 109 |
| CC(=O)NC12Oc3c(C(C)C)cc(C(C)C)cc3C1(O)C(=O)c1ccccc12 (stereo not given) | 217 to 219 |
| Cc1cc2c(cc1C)SC(CCCBr)C(=O)N2 (stereo not given) | 151 to 153 |
| CC(=O)Nc1ccc(N)c2c1C(=O)C(O)(c1ccc(C(C)C)cc1O)C2=O (stereo not given) | 278 to 280 |
| CCCCCCOc1cc(C(=O)O)cc(N)c1C(=O)c1ccccc1 | 168 |
| CCCc1cc2c(cc1CC#N)OCO2 | 66 to 67 |
| CCOC(=NS(=O)(=O)c1ccccc1OC(F)F)OCC | 80 to 81 |
| CC1C(=O)Oc2cc(N3CCOCC3)ccc21 (stereo not given) | 118 to 121 |
| CCC(O)(c1ccc(OCc2cccc(C)n2)cc1)c1ccccc1OC (stereo not given) | 110 to 111 |
| Cc1nnc(S(=O)(=O)C(Br)(Br)Br)s1 | 169 to 173 |
| CCCCCCCCCCN=C=O | 110 to 112 |
| CCOC(=O)c1cc(-c2ccc(OC)cc2)nn(CC2CCCC2)c1=O | 63.6 to 64.4 |
| O=C1CCCc2nc3ccccc3c(NCc3cccc(Cl)c3)c21 | 138 to 140 |
| O=C(c1cccnc1)c1cc(-c2ccccc2)c(N2CCOCC2)s1 | 180 |
| CNC(=O)c1cc2c(nc(C)n2C)c2c1C(=O)CC1(Cc3ccccc3C1)N2 | 261 |
| COC(=O)c1c(Oc2cccc(C)c2C)nn(C(=O)OC)c1C | 115 |
| CC1(C)OCc2cc(C(=O)CBr)ccc2O1 | 52 to 54 |
| CC(C)C(=O)O[C@H]1[C@H](C)OC(=O)[C@@H](NC(=O)OC(C)(C)C)COC(=O)[C@@H]1CI | 168 to 171 |
| CCOC(=O)c1cc2c3ccccc3n(CCCc3ccccc3)c2c(C)n1 | 101 to 102 |
| COc1cc2c(cc1OC)CC(C#N)=C2 | 140 to 141 |
| CCNC(=O)c1c([Si](C)(C)C)ccc(SC)c1Cl | 137 to 139 |
| Fc1cccc(NCc2nnc(-c3ccc4c(c3)CCO4)o2)c1 | 166 to 167 |
| SC1=NC2(CO1)COC(S)=N2 | 200 to 202 |
| CONC(=O)c1cc(OC)cc(Oc2cccc(C(F)(F)F)c2)n1 | 91 to 92 |
